Results published in patent US20120288442A1, “Nuclear Imaging Method Using Molecular Target Detection Agent for Liver Fibrosis” (ATOMIC ENERGY COUNCIL-INSTITUTE OF NUCLEAR ENERGY RESEARCH, priority 2011, published 2012).

Biological target: T1, CB1 receptor of liver fibrosis cell (Mus musculus, UniProt P47746)
T1 construct: from tissue; host or cells: liver of living mice (one fibrotic, one normal), in vivo imaging
Assay: fluorescence imaging of a mouse having liver fibrosis and a normal mouse with Tocrifluor
Format: in vivo
Settings: for a 543 nm light; FIG. 3B and FIG. 3C

T1 sequence (P47746 whole entry): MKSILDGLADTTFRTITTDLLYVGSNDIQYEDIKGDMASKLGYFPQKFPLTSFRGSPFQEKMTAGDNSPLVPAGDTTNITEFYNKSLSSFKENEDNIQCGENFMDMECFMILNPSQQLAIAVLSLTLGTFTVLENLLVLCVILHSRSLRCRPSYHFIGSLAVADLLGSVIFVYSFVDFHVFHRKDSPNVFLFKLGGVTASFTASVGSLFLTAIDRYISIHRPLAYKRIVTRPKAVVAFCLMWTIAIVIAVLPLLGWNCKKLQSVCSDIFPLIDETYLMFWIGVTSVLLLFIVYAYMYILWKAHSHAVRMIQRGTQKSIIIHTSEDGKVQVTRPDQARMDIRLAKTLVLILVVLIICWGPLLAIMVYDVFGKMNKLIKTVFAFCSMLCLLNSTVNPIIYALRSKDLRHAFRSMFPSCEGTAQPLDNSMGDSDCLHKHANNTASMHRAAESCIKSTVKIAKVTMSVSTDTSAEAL

“N-(Piperidin-1-yl)-5-(4-(4-(3-(5-carboxamidotetramethyl rhodaminyl)propyl))phenyl)-1-(2,4-dichlorophenyl)-4-methyl-1H-pyrazole-3-carboxamide [Tocrifluor]” was tested, and the “fluorescence found at wavelength” value was 590 nm.
